How the values were obtained:
[1] = biological target: T1, rI-FABP (SEQ ID NO: 3) variant BL22P1B11, MGI-KR14-14R 18L 25C 27A 38V 60R 73F 106L 115R 117D, SEQ ID NO: 35 (Rattus norvegicus, UniProt P02693, A74F/K101R/K126R/K17R/K21R/K28A/K30R/K38R/K47R/K51R/K89R/K8R/K93R/K95R/L39V/L73A/M19L/Q116R/R107L/V26C/V61R/Y118D/Y15R); format: binding
T1 construct: made in house

[2] = biological target: T2, rI-FABP (SEQ ID NO: 3) variant ADIFAB2, 72A (Rattus norvegicus, UniProt P02693, L73A); assay: fatty acid binding to ADIFAB2
T2 construct: 6xHis (C)
Source text: (§1) The major (>75%) FFA species generated from Intralipid® are linoleic, oleic, palmitic and linolenic FFA. Because ADIFAB2 is most specific for stearic acid, for which Intralipid® contains only between 1.5 and 5.5%, FFAu probes with specificity for linoleic, oleic, palmitic and linolenic FFA will provide more accurate and sensitive detection of the rise in plasma FFAu due to Intralipid® hydrolysis. Such FFAu probes have been produced (Table 10) using the methods described in U.S. Pat. No. 7,601,510 and U.S. publication 2010/0298162 and in [Huber A H, Kampf J P, Kwan T, Zhu B and Kleinfeld A M. Fatty acid-specific fluorescent probes and their use in resolving mixtures of different unbound free fatty acids in equilibrium with albumin. Biochemistry 45: 14263-14274, 2006]. Sensitive FFAu probes are necessary for detecting the rise in the patient's FFAu levels, early in the titration of Intralipid®, which is critical for the prevention of unbound bilirubin and FFAu from reaching toxic levels.

[3] = biological target: T3, rI-FABP (SEQ ID NO: 3) variant L19CP10C7, MGI-14R 18L 27C 71I 73F 117D (Rattus norvegicus, UniProt P02693, A74F/K28C/L73A/M19L/S72I/Y118D/Y15R); assay: fatty acid binding to L19CP10C7
T3 construct: 6xHis (C); made in house
Source text: as §1

[4] = biological target: T4, rI-FABP (SEQ ID NO: 3) variant L138P1H8 N24C, MGI-18L 21L 23Y 24C 31I 55V 72S 73S 74G 76V 117H 128Y (Rattus norvegicus, UniProt P02693, A74S/D75G/F129Y/F56V/G32I/I24Y/L73S/M19L/M22L/N25C/T77V/Y118H); assay: fatty acid binding to L138P1H8N24C
T4 construct: 6xHis (C); made in house
Source text: as §1

[5] = biological target: T5, rI-FABP (SEQ ID NO: 3) variant L22P5E11, 38R 69T 72A 73K 106A (Rattus norvegicus, UniProt P02693, A70T/A74K/L39R/L73A/R107A); assay: fatty acid binding to L22P5E11
T5 construct: 6xHis (C); made in house
Source text: as §1

[6] = biological target: T6, rI-FABP (SEQ ID NO: 3) variant L61P8 B12, 8I 14L 18L 23L 27Y 30C 31V 53I 55W 72G 73T 74A 78V 82V 91Y 93M 102V 106W 115W 117L (Rattus norvegicus, UniProt P02693, A74T/D75A/F56W/F94M/G32V/G92Y/I24L/K28Y/L103V/L31C/L73G/L79V/M19L/Q116W/R107W/S54I/V9I/W83V/Y118L/Y15L); assay: fatty acid binding to L61P8B12
T6 construct: 6xHis (C); made in house
Source text: as §1

[7] = biological target: rI-FABP (SEQ ID NO: 3) variant L4BP4B9, 73W 74S (Rattus norvegicus, UniProt P02693, A74W/D75S/L73A); assay: fatty acid binding to L4BP4B9
Source text: as §1

[8] = biological target: T7, rI-FABP (SEQ ID NO: 3) variant L119P3E5, 18V 27C 31A 72A 73W (Rattus norvegicus, UniProt P02693, A74W/G32A/K28C/L73A/M19V); assay: fatty acid binding to L119P3E5
T7 construct: 6xHis (C); made in house
Source text: as §1

human albumin = biological target: T8, human albumin (Homo sapiens, UniProt P02768); assay: Bilirubin binding to a single human albumin site (bilirubin spiked plasma); conditions: prediction in good agreement with measured [Bf] in spiked pooled human plasma
T8 construct: Pooled human plasma (Golden West Biologicals) for which [albumin] was 620 μM was spiked with bilirubin; tissue Golden West Biologicals; host or cells: pooled human plasma
Method: Pooled human plasma (Golden West Biologicals) for which [albumin] was 620 μM was spiked with bilirubin to generate plasma samples with bilirubin/albumin ratios from of approximately 0 to 0.9. Measurements of [Bf] were carried out using BL22P1B1-Rh in either a Fluorolog3 (JY Horiba) using 10×10 mm cuvettes or in a FFAu Meter (FFA Sciences) modified for measuring unbound bilirubin by replacing emission filters with ones centered at […]. Measurements of [Bf] were also performed on the same samples using the peroxidase method of Jacobsen and Wennberg [Jacobsen J and Wennberg R P. Determination of unbound bilirubin in the serum of newborns. Clin Chem 20: 783, 1974].

rI-FABP (SEQ ID NO: 3) variant L4BP4B9, 73W 74S, sequence (P02693 with tags, fused parts or gaps L73A/A74W/D75S): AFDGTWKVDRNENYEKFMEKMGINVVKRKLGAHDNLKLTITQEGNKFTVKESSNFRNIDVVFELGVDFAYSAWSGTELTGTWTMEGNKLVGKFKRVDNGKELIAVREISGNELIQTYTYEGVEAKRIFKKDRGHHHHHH
T7 sequence (P02693 with tags, fused parts or gaps M19V/K28C/G32A/L73A/A74W): as the sequence (P02693 with tags, fused parts or gaps L73A/A74W/D75S) above, with M18V, K27C, G31A, S74D counted along it
T3 sequence (P02693 with tags, fused parts or gaps Y15R/M19L/K28C/S72I/L73A/A74F/Y118D): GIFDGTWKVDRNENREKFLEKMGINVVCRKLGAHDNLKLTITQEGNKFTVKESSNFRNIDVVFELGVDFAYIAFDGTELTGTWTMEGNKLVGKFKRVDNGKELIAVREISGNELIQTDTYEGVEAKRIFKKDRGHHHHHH
T2 sequence (P02693 with tags, fused parts or gaps L73A): as the sequence (P02693 with tags, fused parts or gaps L73A/A74W/D75S) above, with W73A, S74D counted along it
T4 sequence (P02693 with tags, fused parts or gaps with the stated changes): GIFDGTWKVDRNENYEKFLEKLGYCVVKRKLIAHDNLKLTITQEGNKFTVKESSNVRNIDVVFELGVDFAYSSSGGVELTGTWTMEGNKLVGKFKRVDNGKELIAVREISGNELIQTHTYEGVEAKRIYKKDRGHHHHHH
T5 sequence (P02693 with tags, fused parts or gaps L39R/A70T/L73A/A74K/R107A): as the sequence (P02693 with tags, fused parts or gaps L73A/A74W/D75S) above, with L38R, A69T, W73K, S74D, R106A counted along it
T6 sequence (P02693 with tags, fused parts or gaps with the stated changes): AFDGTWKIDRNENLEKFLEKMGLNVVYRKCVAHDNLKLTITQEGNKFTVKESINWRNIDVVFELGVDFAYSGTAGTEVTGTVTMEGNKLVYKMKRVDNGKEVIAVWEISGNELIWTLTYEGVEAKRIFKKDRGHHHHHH
T8 sequence (P02768 25-609): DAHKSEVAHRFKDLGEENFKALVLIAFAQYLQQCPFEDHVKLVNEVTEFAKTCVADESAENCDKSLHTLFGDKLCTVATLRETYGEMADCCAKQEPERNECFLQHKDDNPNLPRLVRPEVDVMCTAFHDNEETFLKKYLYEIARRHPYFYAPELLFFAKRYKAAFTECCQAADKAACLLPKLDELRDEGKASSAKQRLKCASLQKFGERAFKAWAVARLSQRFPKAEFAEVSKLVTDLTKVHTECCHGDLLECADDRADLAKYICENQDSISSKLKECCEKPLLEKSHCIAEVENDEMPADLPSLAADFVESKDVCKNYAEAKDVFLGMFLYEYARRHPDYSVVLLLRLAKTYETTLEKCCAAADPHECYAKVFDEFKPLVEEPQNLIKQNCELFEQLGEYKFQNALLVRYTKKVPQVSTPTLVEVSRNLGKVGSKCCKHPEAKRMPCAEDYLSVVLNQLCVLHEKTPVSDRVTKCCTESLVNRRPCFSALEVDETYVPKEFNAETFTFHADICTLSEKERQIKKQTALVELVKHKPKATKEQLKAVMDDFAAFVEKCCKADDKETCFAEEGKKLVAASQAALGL
T1 sequence (P02693 with tags, fused parts or gaps with the stated changes): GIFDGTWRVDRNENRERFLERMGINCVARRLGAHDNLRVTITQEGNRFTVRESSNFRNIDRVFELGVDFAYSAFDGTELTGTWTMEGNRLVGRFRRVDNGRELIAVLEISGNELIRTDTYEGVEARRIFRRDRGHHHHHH

Row | Kd (human albumin) | Structure (SMILES) | Kd [1] | Kd [2] | Kd [3] | Kd [4] | Kd [5] | Kd [6] | Kd [7] | Kd [8]
1 |  | CC/C=C\C/C=C\C/C=C\CCCCCCCC(=O)O [Linolenate 18:3 (n-3), Linolenate] | 3460 nM |  |  |  |  |  |  | 
2 |  | CCCCCCCC/C=C\CCCCCCCC(=O)O [Oleate 18:1 (n-9), Oleate] |  | 21.5 nM | 1.2 nM | 7.6 nM | 3.1 nM | 4.3 nM | 18.9 nM | 12.7 nM
3 | 20 nM | C=CC1=C(C)/C(=C/c2[nH]c(Cc3[nH]c(/C=C4\NC(=O)C(C)=C4C=C)c(C)c3CCC(=O)O)c(CCC(=O)O)c2C)NC1=O [Bilirubin, unconjugated bilirubin IXα] |  |  |  |  |  |  |  | 
4 |  | CCCCC/C=C\C/C=C\CCCCCCCC(=O)O [Linoleate 18:2 (n-6), Linoleate] |  | 105 nM | 0.8 nM | 6.5 nM | 6.7 nM | 25.7 nM | 40.8 nM | 23 nM

— patent US10295551B2, “Development and use of fluorescent probes of unbound bilirubin” (Alan Marc Kleinfeld, priority 2011, dated 2019)
